Measurements from ChEMBL document CHEMBL1201862, “PubChem BioAssay data set” (2004).
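Test compounds were applied to cells in 96-well plates for 48 hours at 5 doses. At the GI50, growth is halved.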 Activity calls are given as the source filed them. Cut-off read from the data, not from the text of the source: active = GI50 up to about 1.1 µM and inactive = higher.

What was measured:
Experiment in all cases: inhibition of tumour cell growth, NCI panel, 48 h
786-0 = tested on: 786-0
A549 = tested on: A549
ACHN = tested on: ACHN
BT-549 = tested on: BT-549
CAKI-1 = tested on: CAKI-1
CCRF-CEM = tested on: CCRF-CEM
COLO 205 = tested on: COLO 205
DU-145 = tested on: DU-145
EKVX = tested on: EKVX
HCT-116 = tested on: HCT-116
HCT-15 = tested on: HCT-15
HL-60 = tested on: HL-60
HOP-62 = tested on: HOP-62
HOP-92 = tested on: HOP-92
HT-29 = tested on: HT-29
Hs-578T = tested on: Hs-578T
K562 = tested on: K562
KM12 = tested on: KM12
LOX IMVI = tested on: LOX IMVI
M14 = tested on: M14
MCF7 = tested on: MCF7
MDA-MB-231 = tested on: MDA-MB-231
MDA-MB-435 = tested on: MDA-MB-435
MDA-N = tested on: MDA-N
MOLT-4 = tested on: MOLT-4
Malme-3M = tested on: Malme-3M
NCI-H226 = tested on: NCI-H226
NCI-H23 = tested on: NCI-H23
NCI-H460 = tested on: NCI-H460
NCI/ADR-RES = tested on: NCI/ADR-RES
OVCAR-3 = tested on: OVCAR-3
OVCAR-4 = tested on: OVCAR-4
OVCAR-5 = tested on: OVCAR-5
OVCAR-8 = tested on: OVCAR-8
PC-3 = tested on: PC-3
RPMI-8226 = tested on: RPMI-8226
RXF 393 = tested on: RXF 393
SF-268 = tested on: SF-268
SF-295 = tested on: SF-295
SF-539 = tested on: SF-539
SK-MEL-28 = tested on: SK-MEL-28
SK-MEL-5 = tested on: SK-MEL-5
SK-OV-3 = tested on: SK-OV-3
SN12C = tested on: SN12C
SNB-19 = tested on: SNB-19
SR = tested on: SR
SW-620 = tested on: SW-620
T47D = tested on: T47D
TK-10 = tested on: TK-10
U-251 = tested on: U-251
UACC-257 = tested on: UACC-257
UACC-62 = tested on: UACC-62
UO-31 = tested on: UO-31
IGROV-1 = tested on: IGROV-1
NCI-H522 = tested on: NCI-H522
SK-MEL-2 = tested on: SK-MEL-2
SNB-75 = tested on: SNB-75

Measured: GI50

COc1ccc(-c2cc(-c3ccc(O)cc3O)c(C#N)c(=O)[nH]2)cc1
inactive: 786-0 18.5 µM | A549 23.4 µM | ACHN 43.2 µM | BT-549 23.6 µM | CAKI-1 23.8 µM | CCRF-CEM 23.9 µM | COLO 205 16.6 µM | DU-145 40.6 µM | EKVX 15.2 µM | HCT-116 19.1 µM | HL-60 29.7 µM | HOP-62 17.9 µM | HOP-92 12.6 µM | HT-29 18.1 µM | Hs-578T 18.5 µM | K562 25.2 µM | KM12 22.6 µM | LOX IMVI 16.6 µM | M14 16 µM | MCF7 27 µM | MDA-MB-231 17.3 µM | MDA-MB-435 13.8 µM | MDA-N 11.6 µM | MOLT-4 18.6 µM | Malme-3M 23.1 µM | NCI-H226 20.6 µM | NCI-H23 26.2 µM | NCI-H460 23.1 µM | NCI/ADR-RES 19.6 µM | OVCAR-3 20.5 µM | OVCAR-4 20.1 µM | OVCAR-5 18.6 µM | OVCAR-8 31.9 µM | PC-3 14.4 µM | RPMI-8226 15.7 µM | RXF 393 15.9 µM | SF-268 24.3 µM | SF-295 15.7 µM | SF-539 17.6 µM | SK-MEL-28 15.1 µM | SK-MEL-5 15.5 µM | SK-OV-3 16.1 µM | SN12C 18.8 µM | SNB-19 21.9 µM | SR 16.7 µM | SW-620 21.3 µM | T47D 93.3 µM | TK-10 26.5 µM | U-251 18.7 µM | UACC-257 19.5 µM | UACC-62 15.8 µM | UO-31 34.4 µM
31.9 µM: HCT-15

Cc1cc(N(C)C)ccc1/N=N/c1ccc2ncccc2c1
inactive: 786-0 > 100 µM | A549 > 100 µM | ACHN > 100 µM | BT-549 35.2 µM | CAKI-1 > 100 µM | CCRF-CEM 40 µM | COLO 205 33.9 µM | DU-145 > 100 µM | EKVX 23.6 µM | HCT-116 59.7 µM | HL-60 19.9 µM | HOP-92 > 100 µM | HT-29 35.3 µM | Hs-578T 30.6 µM | IGROV-1 86.3 µM | K562 29.8 µM | KM12 66.7 µM | M14 > 100 µM | MCF7 20.3 µM | MDA-MB-231 84.1 µM | MDA-MB-435 > 100 µM | MDA-N > 100 µM | MOLT-4 16.8 µM | Malme-3M 62.4 µM | NCI-H226 31.8 µM | NCI-H23 59.3 µM | NCI-H460 27.4 µM | NCI-H522 13.3 µM | NCI/ADR-RES > 100 µM | OVCAR-5 > 100 µM | OVCAR-8 > 100 µM | PC-3 59.2 µM | RPMI-8226 20.2 µM | RXF 393 > 100 µM | SF-268 > 100 µM | SF-295 > 100 µM | SF-539 > 100 µM | SK-MEL-2 > 100 µM | SK-MEL-5 17.2 µM | SK-OV-3 > 100 µM | SN12C > 100 µM | SNB-19 28.9 µM | SNB-75 25.4 µM | SR 44.4 µM | SW-620 > 100 µM | T47D 16.9 µM | TK-10 25.6 µM | U-251 > 100 µM | UACC-257 98.4 µM | UACC-62 > 100 µM | UO-31 > 100 µM
40.6 µM: HCT-15
